Read-outs that look alike come from different tables or passages of the source.
Assays:
[1] = test system: Plasmodium falciparum 3D7 strain; parameters: method as in earlier work; conditions: SYBR Green I, strain with decreased susceptibility to MQ; previously determined for 2a-b, 3a-b and reference molecules; read-out: IC50 Pf3D7; cited from earlier work
hemozoin formation = conditions: according to different studies; cited from earlier work
[2] = test system: Plasmodium falciparum W2 strain; parameters: method as in earlier work; conditions: SYBR Green I, CQ-resistant strain; previously determined for 2a-b, 3a-b and reference molecules; read-out: IC50 PfW2; cited from earlier work
HepG2 cell line = experiment: In vitro cytotoxicity, MTT assay on HepG2; assay type: cell-based, human; conditions: for Selectivity Index HepG2/3D7: CC50 on HepG2 / IC50 against Pf3D7; for SI times higher than that of parental drug MQ: versus MQ
Protocol: (§1) Briefly, in 96-well plates, 100 µL of a cell culture adjusted to 25,000 cells/mL was dispensed and the plates were incubated at 37 °C in a humidified 5% CO2 atmosphere for 24 h to allow the cells to adhere to the bottom of the wells. After microscopic verification of the adherent cells, the culture medium was removed and replaced with 100 μL of medium with the compounds at various concentrations dissolved in DMSO (final concentration less than 0.5% v/v), and the plates were incubated for 72 h at 37 °C. Controls were DMSO in medium (0.5% v/v) without compound as blank. Then, the supernatant from each well was removed prior to the addition of 100 µL of 3-(4,5-dimethyl-2-thiazolyl)-2,5-diphenyl-2H-tetrazolium bromide (MTT) solution (0.5 mg/mL in culture medium) per well. After 2 h of incubation, the supernatant from each well was removed and 100 µL of DMSO was added to dissolve the resulting blue formazan crystals accumulated at the bottom of the wells. The plates were incubated for 5 min at 37 °C in a humidified 5% CO2 atmosphere. Then, the wells were homogenized by shaking the plates for 10 min with a microplate shaker. The absorbance was read using the Tecan’s Sunrise™ absorbance microplate reader at 570 nm with 630 nm as the reference wavelength. […] Selectivity index (SI) was calculated and defined as the ratio between CC50 values on HepG2 and IC50.

[3] = In vitro cytotoxicity, MTT assay on HepG2; assay type: cell-based, human; conditions: human, HepG2 cells; MTT, 72 h incubation; mean ± SD of three experiments
Protocol: as §1

[4] = test system: Plasmodium falciparum 3D7 strain; experiment: In vitro antimalarial activity, SYBR Green I fluorescence-based method, Pf3D7; assay type: cell-based; conditions: for IC50: Plasmodium falciparum, 3D7, SYBR Green I, 48 h incubation, strain with decreased susceptibility to MQ, 1a-b re-assayed here, mean ± SD of three experiments; for Eudysmic Ratio Pf3D7: ratio of IC50s of the enantiomer pair, eutomer configuration in parentheses
Description: (§2) IC50s, corresponding to in vitro antimalarial activity against PfW2 and Pf3D7, was previously determined for compounds 2a-b, 3a-b and reference molecules using the SYBR Green I fluorescence-based method. As compounds 1a-b were previously screened using the hypoxanthine-tritied method, they were here re-assayed with the SYBR Green I fluorescence-based method described elsewhere for comparison with the other two Series (2 and 3) and reference molecules. When possible, eudysmic ratios were calculated. The SYBR green I fluorescence-based method is detailed below.
(§3) Compounds were dissolved in DMSO and then diluted in sterile water in order to obtain a range of concentrations from 40 nM to […] for the first screening against culture-adapted Plasmodium falciparum reference strains 3D7 and W2. […] These two strains were obtained from the collection of the National Museum of Natural History (Paris, France). The parasites were cultivated in RPMI medium (Sigma-Aldrich, Saint Quentin Fallavier, France) supplemented with 0.5% Albumax I (Life Technologies Corporation, Paisley, UK), hypoxanthine (Sigma-Aldrich, Saint Quentin Fallavier, France) and gentamicin (Sigma-Aldrich, Saint Quentin Fallavier, France) with human erythrocytes and were incubated at 37 °C with 5% CO2 [26]. The P. falciparum drug susceptibility test was carried out in 96-well flat-bottomed sterile plates in a final volume of 250 μL. After a 48 h incubation period with the drugs, quantities of DNA in treated and control cultures of parasites in human erythrocytes were quantified using the SYBR Green I (Sigma-Aldrich, Saint Quentin Fallavier, France) fluorescence-based method. Briefly, after incubation, the plates were frozen at −20 °C until use. The plates were then thawed for 2 h at room temperature, and 100 μL of each homogenized culture was transferred to a well of a 96-well flat-bottomed sterile black plate (Sigma-Aldrich, Saint Quentin Fallavier, France) that contained 100 μL of the SYBR Green I lysis buffer (2xSYBR Green, 20 mM Tris base pH 7.5, 5 mM EDTA, 0.008% w/v saponin, 0.08% w/v Triton X-100). Negative controls treated with solvent (typically DMSO or H2O) and positive controls (CQ and MQ) were added to each set of experiments. Plates were incubated for 1 h at room temperature and then read on a fluorescence plate reader (Tecan Trading AG, Männedorf, Switzerland) using excitation and emission wavelengths of 485 and 535 nm, respectively.

β-hematin formation = experiment: Inhibition of β-hematin formation; assay type: biochemical; conditions: for Inhibition (%) of β-hematin formation at 2 mM: 24 h at 37 °C, versus negative control, mean ± SD of three experiments; for IC50: concentration range 0–2 mM, determined graphically
Protocol: Briefly, 100 μL of a fresh 6.5 mM solution of hemin (Sigma-Aldrich, SaintQuentin Fallavier, France) dissolved in 0.2 M NaOH was mixed with 100 μL of 3 M sodium acetate, 25 μL of 17.4 M acetic acid and 25 μL of the tested drug or controls (water and MeOH/DMSO). Magnetic stirring of the solution was used to avoid sedimentation. After 24 h incubation at 37 °C under shaking, the supernatant resulting from centrifugation for 15 min at 3300× g was discarded. The pellet was washed twice with 200 μL DMSO. After a final wash with water, the pellet was dissolved in 200 μL with 0.1 M NaOH. After a further 1:30 dilution, absorption at 405 nm was read using a microplate photometer (Multiskan® EX, Thermo Scientific, Waltham, MA, USA). CQ, MQ, ENP (considered as positive controls), water and MeOH/DMSO (considered as negative controls) were included in each experiment. […] Statistical significance was defined as a value of p ≤ 0.05.

[5] = test system: Plasmodium falciparum W2 strain; experiment: In vitro antimalarial activity, SYBR Green I fluorescence-based method, PfW2; assay type: cell-based; conditions: for IC50: Plasmodium falciparum, W2, SYBR Green I, 48 h incubation, CQ-resistant strain, 1a-b re-assayed here, mean ± SD of three experiments; for Eudysmic Ratio PfW2: ratio of IC50s of the enantiomer pair, eutomer configuration in parentheses
Description: as §2, §3

PfW2 = test system: PfW2; parameters: method as in PMID 8513873; conditions: Figure 1; cited from earlier work
PfD6 = test system: PfD6; parameters: method as in PMID 8513873; conditions: Figure 1; cited from earlier work
Plasmodium falciparum = test system: Plasmodium falciparum; parameters: method as in PMID 8513873; conditions: Figure 1, (S,R) vs (R,S) MQ, (+)- vs (-)-ENP; cited from earlier work

CCN(CC)CCCC(C)Nc1ccnc2cc(Cl)ccc12 (stereo not drawn) [Chloroquine, chloroquine, reference compound]
IC50 [1]: 0.0759 ± 0.003 µM | inhibition of in vitro hemozoin formation (hemozoin formation): up to 90% | IC50 [2]: 0.199 ± 0.027 µM

CCCCNC[C@H](O)c1cc(C(F)(F)F)nc2c(C(F)(F)F)cccc12 [1b]
Selectivity Index HepG2/3D7 (HepG2 cell line): 2503 | SI times higher than that of parental drug MQ (HepG2 cell line): 15–23 times | CC50 at 72 h [3]: 37.8 ± 1.9 µM | IC50 [4]: 0.0151 ± 0.0034 µM | Eudysmic Ratio Pf3D7 [4]: 1 | Inhibition (%) of β-hematin formation at 2 mM (β-hematin formation): 71.3 ± 10.3% | IC50 (β-hematin formation): 1310 ± 540 µM | IC50 [5]: 0.0073 ± 0.0009 µM | Eudysmic Ratio PfW2 [5]: 1.46 (S)

CCCCNC[C@@H](O)c1cc(-c2ccc(C(F)(F)F)cc2)nc(C(F)(F)F)c1 [2a]
IC50 [1]: 0.0458 ± 0.0023 µM | Selectivity Index HepG2/3D7 (HepG2 cell line): 87 | CC50 at 72 h [3]: 4 ± 0.9 µM | Eudysmic Ratio Pf3D7 [4]: 1.2 (S) | IC50 [2]: 0.009 ± 0.0004 µM | Inhibition (%) of β-hematin formation at 2 mM (β-hematin formation): 73.5 ± 18.0% | IC50 (β-hematin formation): 1450 ± 300 µM | Eudysmic Ratio PfW2 [5]: 1.1 (S)

CCCCNC[C@H](O)c1ccc(-c2ccc(C(F)(F)F)cc2)nc1C(F)(F)F [3b]
IC50 [1]: 1.38 ± 0.993 µM | Selectivity Index HepG2/3D7 (HepG2 cell line): >72 | CC50 at 72 h [3]: > 100 µM | Eudysmic Ratio Pf3D7 [4]: 2.9 (S) | IC50 [2]: 0.523 ± 0.0958 µM | Inhibition (%) of β-hematin formation at 2 mM (β-hematin formation): 40.6 ± 28.3% | IC50 (β-hematin formation): > 2000 µM | Eudysmic Ratio PfW2 [5]: 4.0 (S)

CCCCNC[C@H](O)c1cc(-c2ccc(C(F)(F)F)cc2)nc(C(F)(F)F)c1 [2b]
IC50 [1]: 0.0567 ± 0.0048 µM | Selectivity Index HepG2/3D7 (HepG2 cell line): 70 | CC50 at 72 h [3]: 4 ± 0.7 µM | Eudysmic Ratio Pf3D7 [4]: 1.2 (S) | IC50 [2]: 0.01 ± 0.0007 µM | Inhibition (%) of β-hematin formation at 2 mM (β-hematin formation): 54.0 ± 22.7% | IC50 (β-hematin formation): 1770 ± 220 µM | Eudysmic Ratio PfW2 [5]: 1.1 (S)

OC(c1cc(C(F)(F)F)nc2c(C(F)(F)F)cccc12)C1CCCCN1 (stereo not drawn) [Mefloquine, mefloquine, reference compound]
IC50 (PfW2): 0.0039 µM | IC50 [1]: 0.0797 ± 0.0085 µM | CC50 at 72 h [3]: 8.6 ± 2.6 µM | IC50 (PfD6): 0.0344 µM | IC50 [2]: 0.0318 ± 0.001 µM | Inhibition (%) of β-hematin formation at 2 mM (β-hematin formation): 61.3 ± 8.5%

CCCCNC[C@@H](O)c1cc(C(F)(F)F)nc2c(C(F)(F)F)cccc12 [1a]
Selectivity Index HepG2/3D7 (HepG2 cell line): 1695 | SI times higher than that of parental drug MQ (HepG2 cell line): 15–23 times | CC50 at 72 h [3]: 25.6 ± 2.7 µM | IC50 [4]: 0.0151 ± 0.0033 µM | Eudysmic Ratio Pf3D7 [4]: 1 | Inhibition (%) of β-hematin formation at 2 mM (β-hematin formation): 81.8 ± 8.4% | IC50 (β-hematin formation): 1170 ± 320 µM | IC50 [5]: 0.005 ± 0.0003 µM | Eudysmic Ratio PfW2 [5]: 1.46 (S)

CCCCNC[C@@H](O)c1ccc(-c2ccc(C(F)(F)F)cc2)nc1C(F)(F)F [3a]
IC50 [1]: 0.479 ± 0.0382 µM | Selectivity Index HepG2/3D7 (HepG2 cell line): 24 | CC50 at 72 h [3]: 11.6 ± 0.7 µM | IC50 [2]: 0.132 ± 0.0103 µM | Inhibition (%) of β-hematin formation at 2 mM (β-hematin formation): 48.3 ND ^c % | IC50 (β-hematin formation): > 2000 µM

OC(c1cc(-c2ccc(C(F)(F)F)cc2)nc(C(F)(F)F)c1)C1CCCCN1 (stereo not drawn) [Enpiroline, enpiroline, reference compound]
IC50 (PfW2): 0.00285 µM | IC50 ratio between enantiomers (Plasmodium falciparum): 1.15–1.22 times | IC50 [1]: 0.0216 ± 0.0014 µM | Selectivity Index HepG2/3D7 (HepG2 cell line): 204 | CC50 at 72 h [3]: 4.4 ± 0.6 µM | IC50 (PfD6): 0.0164 µM | IC50 [2]: 0.0115 ± 0.0023 µM | Inhibition (%) of β-hematin formation at 2 mM (β-hematin formation): 20.3 ND ^c % | IC50 (β-hematin formation): > 2000 µM

— publication PMC11678906, “Evaluation of In Vitro Inhibition of β-Hematin Formation: A Step Towards a Comprehensive Understanding of the Mechanism of Action of New Arylamino Alcohols” (Microorganisms, 2024)
